Series [1] is described as follows: Metabolic stability test: liver microsomal stability assay. The format is in vitro ADME, mouse. Conditions: for microsomal CLint at 1 µM: male, pH 7.4, presence of NADPH, read-out: Mouse Hepatic Microsome CLh,int NADPH(+). (In general: Microsomes from liver hold many membrane-bound enzymes, among them those of drug oxidation.)
A short description of series [2]: Membrane permeability test using Caco-2 cells with preincubation. The format is in vitro ADME. As to conditions: Caco-2. (In general: Caco-2 monolayers are a common model of the intestinal barrier.)
The subject of another series is Caco-2 cells. The description is as above. The format is in vitro ADME.
Where [3] appears, read: mouse liver microsomes 0.5 mg protein/mL, compound 1 µM.
Setting [4] is: mouse liver microsomes 0.5 mg protein/mL, compound 1 µM, absence of NADPH.
Setting [5] is: preincubation 20 to 24 hours, Apical FaSSIF/HBSS pH 6.0, Basal HBSS 4% BSA pH 7.4, 180 minutes, read-out: Caco2 Papp.
Where [6] appears, read: Caco-2 cells, preincubation 20 to 24 hours, apical FaSSIF/HBSS 1% DMSO pH 6.0, basal HBSS 4% BSA pH 7.4, basal sample at 180 minutes.

Where two headings read alike, the source gives them in different places. Starred links: 1 amine or outer side, 2 acyl side, 3 side chain; linkers in the order of their positions; H or OH if unused. Non-standard residues stand in square brackets, D forms with d. Residues, ends and D or L forms follow the SMILES beside them. *: point of attachment. NMedβ3hAla = C[C@H](CC(=O)[*:2])N(C)[*:1]; NMeF = CN[C@@H](Cc1ccccc1)C(=O)O; NMeI = CC[C@H](C)[C@H](NC)C(=O)O; NMeT = CN[C@H](C(=O)O)[C@@H](C)O; hPhe = N[C@@H](CCc1ccccc1)C(=O)O; NMeβAla = CN(CCC(=O)[*:2])[*:1]; NMeL = CN[C@@H](CC(C)C)C(=O)O; NMeV = CN[C@H](C(=O)O)C(C)C; d(β3hA) = C[C@@H](N)CC(=O)O; NMeAbu = CC[C@H](NC)C(=O)O; NMeA = CN[C@@H](C)C(=O)O; βAla = NCCC(=O)O; Sar = CNCC(=O)O; tBu = CC(C)(C)*

For `CC[C@H](C)[C@@H]1NC(=O)[C@H](CC(C)C)N(C)C(=O)[C@H](C)N(C)C(=O)[C@H](Cc2ccccc2)N(C)C(=O)[C@@H]2CCCN2C(=O)[C@H](CC(C)C)N(C)C(=O)[C@H](CCc2ccccc2)NC(=O)CCN(C)C(=O)C[C@@H](C)NC(=O)[C@H](CC(C)C)N(C)C(=O)[C@H]([C@@H](C)O)NC(=O)CCN(C)C(=O)[C@H](C(C)C)N(C)C1=O` [pd138] (cyclo(I[NMeV][NMeβAla]T[NMeL][d(β3hA)][NMeβAla][hPhe][NMeL]P[NMeF][NMeA][NMeL])), the microsomal CLint at 1 µM in series [1] (setting [3]) is 39.3 µL/min/mg. For the same compound, the “Mouse Hepatic Microsome CLh,int NADPH(-)” value in series [1] (setting [4]) was 11.1 µL/min/mg Protein. Besides, in series [2] (setting [5]), the Papp A→B is 0.23 ×10⁻⁶ cm/s. In addition, the “Caco2 Papp (10^-6 cm/sec)” value in the series on Caco-2 cells (setting [6]) is listed as 0.23 10^-6 cm/sec.

In the case of `CC[C@H](C)[C@@H]1NC(=O)[C@H](CC(C)C)N(C)C(=O)C[C@@H](C)NC(=O)[C@H](C(C)C)N(C)C(=O)[C@H](COC(C)(C)C)NC(=O)[C@H](CC)N(C)C(=O)[C@H](Cc2ccccc2)N(C)C(=O)[C@H](CC(C)C)NC(=O)[C@@H]2CCCN2C(=O)[C@H]([C@@H](C)O)N(C)C(=O)[C@H](CC(C)C)N(C)C(=O)[C@H](CC)N(C)C(=O)[C@H](CC(C)C)N(C)C1=O` [pd139] (cyclo(I[NMeL][NMeAbu][NMeL][NMeT]PL[NMeF][NMeAbu]S(tBu)[NMeV][d(β3hA)][NMeL])), in series [1] (setting [3]), the microsomal CLint at 1 µM worked out at 32.3 µL/min/mg. Besides, the “Mouse Hepatic Microsome CLh,int NADPH(-)” value in series [1] (setting [4]) is 28.2 µL/min/mg Protein. Moreover, the Papp A→B in series [2] (setting [5]) is 1.24 ×10⁻⁶ cm/s. The “Caco2 Papp (10^-6 cm/sec)” value in the series on Caco-2 cells (setting [6]) is 1.24 10^-6 cm/sec.

With `CC[C@H]1C(=O)N(C)[C@@H](Cc2ccccc2)C(=O)N(C)[C@@H](CC(C)C)C(=O)N[C@@H](CC(C)C)C(=O)N(C)[C@@H](C(C)C)C(=O)N[C@H](C)CC(=O)N(C)CC(=O)N(C)[C@@H](C(C)C)C(=O)N(C)[C@@H](CC(C)C)C(=O)N(C)[C@@H](C)C(=O)N(C)[C@@H](CC(C)C)C(=O)N[C@@H]([C@@H](C)O)C(=O)N(C)CC(=O)N1C` [pd140] (cyclo(L[NMeV][d(β3hA)][Sar][NMeV][NMeL][NMeA][NMeL]T[Sar][NMeAbu][NMeF][NMeL])), the microsomal CLint at 1 µM in series [1] (setting [3]) was found to be 10.5 µL/min/mg. For the same compound, the “Mouse Hepatic Microsome CLh,int NADPH(-)” value in series [1] (setting [4]) stood at 10.3 µL/min/mg Protein. Moreover, the Papp A→B in series [2] (setting [5]) came to 0.31 ×10⁻⁶ cm/s. For the same compound, the “Caco2 Papp (10^-6 cm/sec)” value in the series with Caco-2 cells (setting [6]) is 0.31 10^-6 cm/sec.

Turning to `CC[C@H](C)[C@@H]1NC(=O)[C@H](CC(C)C)N(C)C(=O)[C@H](CC(C)C)NC(=O)CCN(C)C(=O)C[C@@H](C)N(C)C(=O)[C@H](CC(C)C)N(C)C(=O)CNC(=O)[C@@H]2CCCN2C(=O)[C@H](CC(C)C)N(C)C(=O)CCNC(=O)[C@H]([C@@H](C)CC)N(C)C(=O)[C@H](CCc2ccccc2)NC(=O)[C@H](Cc2ccccc2)N(C)C1=O` [pd141] (cyclo(G[NMeL][NMedβ3hAla][NMeβAla]L[NMeL]I[NMeF][hPhe][NMeI][βAla][NMeL]P)), the “Mouse Hepatic Microsome CLh,int NADPH(-)” value in series [1] was 21.1 µL/min/mg Protein. The Papp A→B in series [2] came out at 0.24 ×10⁻⁶ cm/s. Besides, in the series with Caco-2 cells (Caco-2), the “Caco2 Papp (10^-6 cm/sec)” value is listed as 0.24 10^-6 cm/sec.

As to `CC[C@H](C)[C@@H]1NC(=O)[C@H](CC(C)C)N(C)C(=O)[C@H](CC(C)C)NC(=O)CCN(C)C(=O)C[C@@H](C)N(C)C(=O)CN(C)C(=O)[C@H](CC(C)C)N(C)C(=O)[C@@H]2CCCN2C(=O)[C@H](CC(C)C)N(C)C(=O)[C@H](COC(C)(C)C)NC(=O)[C@H]([C@@H](C)CC)N(C)C(=O)[C@H](CCc2ccccc2)NC(=O)[C@H](Cc2ccccc2)N(C)C1=O` [pd142] (cyclo(I[NMeF][hPhe][NMeI]S(tBu)[NMeL]P[NMeL][Sar][NMedβ3hAla][NMeβAla]L[NMeL])), in series [1] (setting [3]), the microsomal CLint at 1 µM came out at 31.7 µL/min/mg. Also, the “Mouse Hepatic Microsome CLh,int NADPH(-)” value in series [1] (setting [4]) came out at 33.9 µL/min/mg Protein. In addition, the Papp A→B in series [2] (setting [5]) stood at 0.71 ×10⁻⁶ cm/s. In the series with Caco-2 cells (setting [6]), the “Caco2 Papp (10^-6 cm/sec)” value is recorded as 0.71 10^-6 cm/sec.

Source of the values: patent EP4768499A1, “MACROCYCLIC PEPTIDE COMPOUND HAVING CELL MEMBRANE PERMEABILITY AND METABOLIC STABILITY, AND LIBRARY CONTAINING SAME” (Chugai Seiyaku Kabushiki Kaisha, priority 2023, dated 2025).
